Source: PubChem BioAssay (NCI)
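Exposure lasted 48 hours, with cells grown in 96-well plates and compounds tested at five concentrations. GI50 marks 50% less growth. Definition used: TGI = concentration required for complete inhibition of growth.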 Where a SMILES comes first, the peptide text is derived from it. The star is where a group is joined. Ethyl(2-NMe3+) = C[N+](C)(C)CC*; Boc = CC(C)(C)OC(=O)*

Assays:
Assay in all cases: DTP human tumour cell line panel, 48 h
SK-MEL-2 melanoma = system: SK-MEL-2 melanoma
T-47D breast = system: T-47D breast
SN12C renal = system: SN12C renal
PC-3 prostate = system: PC-3 prostate
SK-OV-3 ovarian = system: SK-OV-3 ovarian
NCI-H226 lung = system: NCI-H226 lung
HL-60(TB) leukemia = system: HL-60(TB) leukemia
LOX IMVI melanoma = system: LOX IMVI melanoma
NCI/ADR-RES ovarian = system: NCI/ADR-RES ovarian
K-562 leukemia = system: K-562 leukemia
SW-620 colon = system: SW-620 colon
MDA-MB-231 breast = system: MDA-MB-231 breast
DU-145 prostate = system: DU-145 prostate
A549 NSCLC = system: A549 NSCLC
HCC-2998 colon = system: HCC-2998 colon
M14 melanoma = system: M14 melanoma

Row | SMILES | TGI (SK-MEL-2 melanoma) | TGI (T-47D breast) | TGI (SN12C renal) | TGI (PC-3 prostate) | TGI (SK-OV-3 ovarian) | TGI (NCI-H226 lung) | TGI (HL-60(TB) leukemia) | TGI (LOX IMVI melanoma) | TGI (NCI/ADR-RES ovarian) | TGI (K-562 leukemia) | TGI (SW-620 colon) | TGI (MDA-MB-231 breast) | TGI (DU-145 prostate) | TGI (A549 NSCLC) | TGI (HCC-2998 colon) | TGI (M14 melanoma) | GI50 (NCI-H226 lung) | GI50 (HL-60(TB) leukemia) | GI50 (LOX IMVI melanoma) | GI50 (HCC-2998 colon)
1 | c1ccc2c(c1)cc1c3[nH]c4ccccc4c3ccn21 | > 10 µM | > 10 µM | > 10 µM | > 10 µM | > 10 µM | > 10 µM | > 10 µM | > 10 µM | > 10 µM | > 10 µM | > 10 µM | > 10 µM | > 10 µM | > 10 µM | > 10 µM | > 10 µM |  |  |  | 
2 | CN(C)CCCNc1c(C#N)[n+]([O-])c2cc(Cl)ccc2[n+]1[O-] | 36.4 µM | 40.7 µM | 53.3 µM | > 41.3 µM | > 67.1 µM | 48.5 µM | 30.3 µM | 56.9 µM | > 57.3 µM | 20.8 µM | 37.1 µM | 37.2 µM | > 100 µM | 31.5 µM | 18.7 µM | 37.6 µM |  |  |  | 
3 | CC1=NN(C(=O)CC(=O)Nc2ccc(C)cc2)C(=O)C1N=Nc1ccc(S(=O)(=O)c2ccc(N=NC3C(=O)N(C(=O)CC(=O)Nc4ccc(C)cc4)N=C3C)cc2)cc1 (centres undefined) | > 100 µM | > 100 µM | > 100 µM | > 100 µM | > 100 µM | > 100 µM | > 100 µM | > 100 µM | > 100 µM | > 100 µM | > 100 µM | > 100 µM | > 100 µM | > 100 µM | > 100 µM | > 100 µM |  |  |  | 
4 | CCN(C(C)=O)c1cnc(/C=N/NC(N)=S)c2ccccc12 | > 100 µM | > 100 µM | > 57.6 µM | > 100 µM | > 100 µM | > 100 µM | > 28.5 µM | 10.1 µM | 58.6 µM | > 100 µM | > 100 µM | > 100 µM | > 25 µM | > 88.3 µM | > 100 µM | > 30.7 µM |  |  |  | 
5 | CC(NC(=O)C(Cc1ccc(OCC[N+](C)(C)C)cc1)NC(=O)OC(C)(C)C)C(=O)NC(Cc1ccccc1)C(=O)NCC(N)=O (centres undefined) (Boc-Y(Ethyl(2-NMe3+))AFG-NH2; configuration not given here) | 25.2 µM | > 100 µM | > 100 µM | > 100 µM | 22.7 µM | 59 µM | > 100 µM | > 100 µM | > 100 µM | > 100 µM | > 100 µM | 9.1 µM | > 100 µM | > 100 µM | 48.8 µM | > 100 µM |  |  |  | 
6 | O=C(NNCc1ccco1)c1cc2ccccc2[nH]1 | > 100 µM | > 100 µM | > 100 µM | > 100 µM | > 100 µM | > 100 µM | 96.9 µM | > 100 µM | > 80.8 µM | > 100 µM | > 100 µM | > 100 µM | > 100 µM | > 100 µM | > 90.1 µM | > 100 µM |  |  |  | 
7 | CC(=O)c1cccc(Nc2nc3ccc(Cl)cc3c3[nH]c4ccccc4c23)c1 | 30.8 µM | 50.6 µM | > 90.8 µM | 30.9 µM | 15.9 µM | 67.1 µM | > 100 µM | > 100 µM | 79.5 µM | > 56.7 µM | > 85.6 µM | 63.8 µM | 26.8 µM | 8.45 µM | > 100 µM | > 100 µM | 10.4 µM | > 100 µM | 5.46 µM | 14.2 µM
8 | O=C(Cc1ccc(Cl)cc1)Nc1ccc2oc(-c3ccccc3)nc2c1 | > 100 µM | > 100 µM | > 100 µM | > 100 µM | > 100 µM | > 100 µM | > 100 µM | > 100 µM | > 100 µM | > 100 µM | > 100 µM | > 100 µM | > 100 µM | > 100 µM | > 100 µM | > 100 µM |  |  |  | 
9 | CCOc1cc2c(cc1O)CC[C@@H]1[C@@H]2CC[C@]2(C)C(N)CC[C@@H]12 (some centres undefined) | 21.3 µM | 25.3 µM | 20.5 µM | 13.7 µM | 17.6 µM | 10.4 µM | > 25.1 µM | 10.9 µM | 8.98 µM | 27.5 µM | 14.3 µM | 5.56 µM | 7.08 µM | 16.1 µM | 5.44 µM | 25.2 µM |  |  |  | 
10 | O=C1C=CC2(O)OCCN(CCO)C2=C1 (centres undefined) (tested in a mixture with another compound) | > 100 µM | > 100 µM | > 100 µM | > 100 µM | > 100 µM | > 100 µM | > 100 µM | > 100 µM | > 100 µM | > 100 µM | > 100 µM | > 100 µM | > 100 µM | > 100 µM | > 100 µM | > 100 µM |  |  |  | 
11 | CC1=C(C(=O)N(C(C)C)C(C)C)CC(C(=O)N(C(C)C)C(C)C)=C(C)N1 | > 100 µM | > 100 µM | > 100 µM | > 100 µM | > 100 µM | > 100 µM | > 100 µM | > 100 µM | > 100 µM | > 100 µM | > 100 µM | > 100 µM | > 100 µM | > 100 µM | > 100 µM | > 100 µM |  |  |  | 
12 | Nc1nc2n[nH]nc2c(=O)[nH]1 | 1.69 µM | 10.5 µM | > 100 µM | > 100 µM | 9.21 µM | 57.5 µM | 16.5 µM | 6.88 µM | > 100 µM | > 100 µM | > 100 µM | > 100 µM | > 57.5 µM | > 100 µM | > 100 µM | 2.98 µM |  |  |  | 
13 | CC1(c2cccc(Cl)c2)CC(c2cccc(Cl)c2)=C(C#N)C(=C(C#N)C#N)N1 (centres undefined) | 64.8 µM | 38 µM | 36.4 µM | 34.3 µM | 32.8 µM | 60.9 µM | 46.2 µM | 39 µM | 48.1 µM | > 100 µM | > 100 µM | 48.6 µM | 29.3 µM | 42.1 µM | 30.3 µM | 31.9 µM |  |  |  | 
14 | C=CC[C@@]1([C@H](C=C)COCc2ccc(OC)cc2)CC[C@]2(C)OC(C)(C)[C@@H](c3ccccc3)N2C1=S | 62.3 µM | > 100 µM | > 100 µM | > 100 µM | > 100 µM | > 100 µM | > 100 µM | > 100 µM | > 100 µM | > 100 µM | > 100 µM | > 100 µM | > 100 µM | > 100 µM | > 100 µM | > 100 µM |  |  |  | 
15 | CCOC(=O)[C@@H]1CCN2CN(c3ccc(OC)cc3)N=C(c3ccccc3)[C@@]12c1ccccc1 | 46.1 µM | 74.6 µM | 34.7 µM | > 100 µM | > 100 µM | 38.9 µM | > 100 µM | 29.6 µM | 67.9 µM | > 100 µM | > 100 µM | > 100 µM | 70.7 µM | > 100 µM | 67.1 µM | 51.3 µM |  |  |  | 
16 | O=P1(c2ccccc2)C(c2ccccc2)=CC=C1c1ccccc1 | 40.9 µM | > 100 µM | > 100 µM | 62.8 µM | > 100 µM | > 100 µM | 9.31 µM | 37.8 µM | > 100 µM | 22.4 µM | > 100 µM | > 100 µM | > 100 µM | > 100 µM | 64.8 µM | > 100 µM |  |  |  | 
17 | COCn1cnc2c(=O)n(-c3ccc(OC)cc3)c(=S)n(-c3ccc(OC)cc3)c21 | > 100 µM | > 100 µM | > 100 µM | > 100 µM | > 100 µM | > 100 µM | > 100 µM | > 100 µM | > 100 µM | > 100 µM | > 100 µM | > 100 µM | > 100 µM | > 100 µM | > 100 µM | > 100 µM |  |  |  | 
18 | Nc1[nH]c(=S)c2c(N)n[nH]c2c1C(=O)Nc1ccccc1 | > 100 µM | > 100 µM | > 100 µM | > 100 µM | > 100 µM | > 100 µM | > 100 µM | > 100 µM | > 100 µM | > 100 µM | > 100 µM | > 100 µM | > 100 µM | > 100 µM | > 100 µM | > 100 µM |  |  |  | 
19 | COc1ccc(NC(=O)/C(=N/NC(N)=S)C2C(=O)NC(=S)NC2=O)c(OC)c1 | > 100 µM | > 100 µM | > 100 µM | > 100 µM | > 100 µM | > 100 µM | > 100 µM | > 100 µM | > 100 µM | > 100 µM | > 100 µM | > 100 µM | > 100 µM | > 100 µM | > 100 µM | > 100 µM |  |  |  | 
20 | CC(C)(C)OC(=O)N1CCC2(C)CC(=O)CC=C12 (centres undefined) | > 100 µM | > 100 µM | > 100 µM | > 100 µM | > 100 µM | > 100 µM | > 100 µM | > 100 µM | > 100 µM | > 100 µM | > 100 µM | > 100 µM | > 100 µM | > 100 µM | > 100 µM | > 100 µM |  |  |  | 
